#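 Where inhibition never reached the appropriate level, the endpoint shown equals the highest concentration tested. Otherwise, values were interpolated linearly from a five-concentration, 48-hour dose response in 96-well plates. GI50 is the concentration that inhibits growth by half.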 Activity calls are given as the source filed them. No stated cut-off is given here; in the data, active = GI50 up to about 1.1 µM and inactive = higher.
# How the values were obtained:
# Assay in all cases: DTP human tumour cell line panel, 48 h
# DLD-1 = test system: DLD-1
# DMS-114 = test system: DMS-114
# DMS-273 = test system: DMS-273
# KM-20L2 = test system: KM-20L2
# LXFL 529 = test system: LXFL 529
# M19-MEL = test system: M19-MEL
# RXF 631 = test system: RXF 631
# SNB-78 = test system: SNB-78
# XF498 = test system: XF498
SMILES,GI50 (DLD-1),GI50 (DMS-114),GI50 (DMS-273),GI50 (KM-20L2),GI50 (LXFL 529),GI50 (M19-MEL),GI50 (RXF 631),GI50 (SNB-78),GI50 (XF498)
COc1ccc2c(c1)C(=O)C1CC(=O)CCC21 (centres undefined),> 100 µM (inactive),> 100 µM (inactive),> 100 µM (inactive),> 100 µM (inactive),> 100 µM (inactive),> 100 µM (inactive),> 100 µM (inactive),> 100 µM (inactive),–
O=C(O)c1c([N+](=O)[O-])cc(C(F)(F)F)cc1[N+](=O)[O-],–,–,> 100 µM (inactive),> 100 µM (inactive),> 100 µM (inactive),> 100 µM (inactive),> 100 µM (inactive),> 100 µM (inactive),35.2 µM (inactive)
CCCCOC(=O)CNC(=O)OC/C=C/C#CC#C/C=C/COC(=O)NCC(=O)OCCCC,> 10 µM (inactive),> 10 µM (inactive),–,> 10 µM (inactive),> 10 µM (inactive),> 10 µM (inactive),> 10 µM (inactive),> 10 µM (inactive),> 10 µM (inactive)
CC(CCCOC(c1ccccc1)(c1ccccc1)c1ccccc1)OC(=O)Nc1ccccc1 (centres undefined),13.7 µM (inactive),12.1 µM (inactive),15.5 µM (inactive),5.12 µM (inactive),13.2 µM (inactive),14.6 µM (inactive),–,16.4 µM (inactive),14.9 µM (inactive)
CCNC(=O)COc1ccc(Cl)c(C)c1,> 100 µM (inactive),> 100 µM (inactive),> 100 µM (inactive),> 100 µM (inactive),> 100 µM (inactive),> 100 µM (inactive),–,> 100 µM (inactive),–
CCCCCCCCOCC(O)COC (centres undefined),> 100 µM (inactive),> 100 µM (inactive),> 100 µM (inactive),–,> 100 µM (inactive),> 100 µM (inactive),–,–,–
COc1cc2cnc3c4cc(OC(C)C)c(OC)cc4ccc3c2cc1OC,> 100 µM (inactive),> 100 µM (inactive),–,> 100 µM (inactive),> 100 µM (inactive),> 100 µM (inactive),–,–,> 100 µM (inactive)
O=C(/C(=C/c1ccc(Cl)cc1)c1ccccc1)c1ccccc1,15.2 µM (inactive),16.7 µM (inactive),–,–,15.9 µM (inactive),–,–,19.9 µM (inactive),18.5 µM (inactive)
CC1(c2cccc(N)c2)C2C(=O)NC(=O)C1C(=O)NC2=O (centres undefined),34.7 µM (inactive),27.5 µM (inactive),25.5 µM (inactive),27.6 µM (inactive),32.2 µM (inactive),37.2 µM (inactive),> 100 µM (inactive),51.2 µM (inactive),21.8 µM (inactive)
O=C(Cc1ccccc1)N/N=C(/c1nc2ccc([N+](=O)[O-])cc2nc1O)C(O)c1ccccc1Cl (centres undefined),> 100 µM (inactive),–,–,–,69.7 µM (inactive),> 100 µM (inactive),–,> 100 µM (inactive),> 100 µM (inactive)
C/C(CN1C(=O)c2ccccc2C1=O)=N\NS(=O)(=O)c1cccc([N+](=O)[O-])c1,> 100 µM (inactive),–,> 100 µM (inactive),> 100 µM (inactive),> 100 µM (inactive),> 100 µM (inactive),> 100 µM (inactive),> 100 µM (inactive),> 100 µM (inactive)
C/C(CCn1[nH]c(=O)ccc1=O)=N\NC(=O)C(N)=O,> 100 µM (inactive),> 100 µM (inactive),> 100 µM (inactive),> 100 µM (inactive),> 100 µM (inactive),> 100 µM (inactive),–,> 100 µM (inactive),> 100 µM (inactive)
Cc1nc(Nc2ccc([N+](=O)[O-])cc2)sc1C(/C=C/c1ccc(N(C)C)cc1)=N/NC(=O)c1ccccc1,55 µM (inactive),29 µM (inactive),–,36.3 µM (inactive),29.1 µM (inactive),61.1 µM (inactive),32.6 µM (inactive),41.6 µM (inactive),> 100 µM (inactive)
Cc1c(Cl)cccc1N1C(=O)C(Cl)=C(Cl)C1=O,> 66.8 µM (inactive),> 100 µM (inactive),> 100 µM (inactive),> 100 µM (inactive),> 75.7 µM (inactive),> 100 µM (inactive),–,> 100 µM (inactive),66.7 µM (inactive)
COc1ccc(/C(C#N)=C(/N)SCc2ccccc2Cl)cc1,14.1 µM (inactive),17.7 µM (inactive),–,17.8 µM (inactive),14.4 µM (inactive),16.6 µM (inactive),–,27 µM (inactive),14.8 µM (inactive)
CCOC(=O)c1cn(Cc2ccccc2)c(=O)n1Cc1ccccc1,> 100 µM (inactive),94 µM (inactive),> 100 µM (inactive),> 100 µM (inactive),> 100 µM (inactive),> 100 µM (inactive),> 100 µM (inactive),> 100 µM (inactive),25.8 µM (inactive)
O=C(O)C1C2CC3CC2CC31 (centres undefined),–,> 100 µM (inactive),> 100 µM (inactive),–,> 100 µM (inactive),–,> 100 µM (inactive),> 100 µM (inactive),> 100 µM (inactive)
CCC12CC[C@H](C#N)N3CCc4c(n(c5ccccc45)C(=O)C1)C32 (some centres undefined),18.3 µM (inactive),–,5.14 µM (inactive),16.3 µM (inactive),16.6 µM (inactive),18.7 µM (inactive),16.4 µM (inactive),19.5 µM (inactive),20 µM (inactive)
CC(C)(O)[C@@H]1CC[C@@]2(C)CCCC(O)C2(O)C1 (some centres undefined),> 100 µM (inactive),> 100 µM (inactive),> 100 µM (inactive),> 100 µM (inactive),> 100 µM (inactive),> 100 µM (inactive),> 100 µM (inactive),–,> 100 µM (inactive)
CCOC(=O)C[C@@]12CCCNC1(C)CCc1ccccc12 (some centres undefined),> 100 µM (inactive),> 100 µM (inactive),> 100 µM (inactive),> 100 µM (inactive),–,> 100 µM (inactive),–,–,> 100 µM (inactive)
COc1cc(C=O)c(-c2cc3c(cc2C=O)OCO3)c(OC)c1OC,88.7 µM (inactive),84.5 µM (inactive),85.5 µM (inactive),69.5 µM (inactive),78 µM (inactive),89.1 µM (inactive),115 µM (inactive),–,–
C[C@@H]1C[C@@H]([C@H](O)CC2CC(=O)NC(=O)C2)C(=O)[C@@H](C)C1 [CYCLOHEXIMIDE],0.0405 µM (active),0.102 µM (active),0.0557 µM (active),0.0705 µM (active),0.0187 µM (active),0.0607 µM (active),0.0248 µM (active),0.0875 µM (active),0.0348 µM (active)
Nc1ccc(S(=O)(=O)Nc2cnc3ccccc3n2)cc1 [SULFAQUINOXALINE],> 100 µM (inactive),> 100 µM (inactive),> 100 µM (inactive),> 100 µM (inactive),> 100 µM (inactive),> 100 µM (inactive),> 100 µM (inactive),> 100 µM (inactive),> 100 µM (inactive)

# From ChEMBL document CHEMBL1201862, “PubChem BioAssay data set” (2004)
